Patent US9464326B2, “Total and phosphorylated IL-1 receptor-associated kinase-1 and IL-1 receptor-associated kinase-4 as a biomarker for cancer progression and chemotherapy resistance” (University of Maryland, Baltimore, priority 2012, dated 2016)

Test system: CCRF-CEM cells
Assay: Cell number and apoptosis assays
Type: cell-based, human
Conditions: IRAK-1,-4 inhibitor 0-20 μM plus titrated drug, apoptosis by 7AAD at 48 hours, FIG. 23
Protocol: TLR ligands were diluted 2-fold. Cell lines (25-40×10^3/well) were cultured for 54 hours, whereas fresh patient-derived T-ALL cells (200×10^3/well) were cultured for 30 hours prior to adding [^3H]-thymidine for 18 hours. After this time point, cells were harvested with a Packard Filter-Mate-96 cell harvester (Perkin Elmer, Waltham, Mass., USA) and counted on Packard Top Count-NXT (Perkin Elmer, Waltham, Mass., USA). Results were expressed as average counts per minute (cpm). In some experiments CCRF-CEM cells were pre-treated with TLR1-TLR2 ligand (Pam3CysK4; 2.5 ug/ml) for 48 hrs, washed, and then cultured in the presence of varying concentrations of FBS. Forty-eight hours later, proliferation (±SD) was determined by ^3H-thymidine incorporation. Alternatively, apoptosis was measured by flow cytometry after staining cells with Annexin-V (BD Pharmingen, San Diego, Calif., USA) and propidium iodide (Sigma). Cell number was counted under microscopy by staining cells with trypan blue.
CCRF-CEM cells were treated with IRAK-1,-4 inhibitor for 24, 48, 72, and 96 hours.
The T-ALL cell line CCRF-CEM was cultured in the presence of 0, 1.2, 5, 10, and 20 μM IRAK-1,-4 inhibitor. (FIG. 23). To each concentration of IRAK-1,-4 inhibitor titrating doses of ABT-737 (1000→15 nM) vincristine, VS (10→0.1 nM), and paclitaxol, PAC (100→1.5 nM). […] Apoptosis was measure 48 hours later by staining cells with 7AAD and analyzed by flow cytometry.

Molecule | synergy with IRAK-1,-4 inhibitor
oligomicin | No synergist effect
CN(C)CC[C@H](CSc1ccccc1)Nc1ccc(S(=O)(=O)NC(=O)c2ccc(N3CCN(Cc4ccccc4-c4ccc(Cl)cc4)CC3)cc2)cc1[N+](=O)[O-] [ABT-737] | synergy
